Common to all, as to assay type: cell-based
Assay [1] has as its target T1, GABAAR-mediated currents, β2E181G KI mice (Mus musculus, UniProt P63137, E206G).
T1 construct: from tissue; host or cells: acute hippocampal slices of homozygous β2E181G knock-in mice (C57BL/6J), CA1 neurons
In words: Whole-cell recording of CA1 neurons, hippocampal slices of homozygous β2E181G KI mice. The conditions noted are these: L-Glu 50 µM; KI slices. The method, then: We next determined if glutamate-mediated allosteric potentiation of GABAAR function was impaired in hippocampal slices acutely prepared from postnatal 90-day-old KI mice. Whole-cell recordings of CA1 neurons were performed under voltage clamp configuration at a holding potential of −60 mV.
Mice were deeply anesthetized with urethane (1.5 g/kg, i.p.) and transcardially perfused with ice cold sucrose hypertonic cutting solution (in mM: KCl 3.0, NaH2PO4.H2O 1.25, NaHCO3 26, Na-vitamin C 0.4, Na-lactate 2.0, Na-pyruvate 2.0, D-glucose 10.0, Sucrose 220, CaCl2 0.1, MgCl2 2, MgSO4 4.0, pH 7.4, 290–300 mOsm/l) prior to decapitation as described previously.[47] After decapitation, the brain was rapidly removed and transferred to the ice cold cutting solution bubbled with 95% O2 and 5% CO2, and acute coronal brain slices (400 μm) were prepared on a Leica vibratome (VT1200S, Germany). All brain slices were placed into a standard artificial cerebral spinal fluid (ACSF) (in mM: NaCl 124, KCl 2.8, NaH2PO4.H2O 1.25, NaHCO3 26, Na-vitamin C 0.4, Na-lactate 2.0, Na-pyruvate 2.0, D-glucose 10.0, CaCl2 2, MgSO4 1.2, pH 7.4, 290–300 mOsm/l) incubated at 35 °C for 2 h prior to recording. Field excitatory postsynaptic potential (fEPSP) recordings were performed under current-clamp mode using HEKA EPC10 patch-clamp amplifier (HEKA Electronic, Lambrecht/Pfalz, Germany). […]

The target in the next assay is T2, α1K155Dβ2γ2E168K GABAAR (Rattus norvegicus, UniProt P18508+P62813+P63138, E206K/K182D).
T2 construct: expressed in transfected cells; host or cells: HEK293
Briefly: Patch clamp, HEK293, mutant GABAAR. As to the method:
(§1) HEK293 cells were cultured in DMEM (Invitrogen) supplemented with 10% fetal bovine serum. Cells were grown to 40–60% confluence and transiently transfected using Lipofectamine 2000 (Invitrogen) with 1:0.5–1 plasmid/lipid ratio. Cells were transfected with a pBK-CMV expression vector containing a rat recombinant GABAAR α, β or γ subunits. Co-transections were done with a plasmid ratio of 1:1 αβ and 2:2:1 for αβγ subunit combinations, respectively. pcDNA3.1-GFP was also co-transfected along with GABAAR subunits as a transfected marker in order to facilitate the visualization of the transfected cells during electrophysiological experiments. Cells were re-plated on glass coverslips after 15–20 h transfection and were cultured for an additional 15–24 h before whole-cell patch-clamp recordings.
(§2) The site-directed mutagenesis of α, β or γ subunits were performed by using the QuikChange method (Stratagene). […] Wild-type or mutant subunits were transfected in HEK293 cells and subjected to electrophysiology examinations.
(§3) Whole-cell patch-clamp recordings were performed under voltage-clamp mode using an Axopatch 200B or 1D patch-clamp amplifier (Molecular Devices) on HEK293 cells and cultured neurons. Whole-cell currents were recorded at a holding potential of −60 mV, and signals were filtered at 2 kHz, digitized at 10 kHz (Digidata 1322 A). Recording pipettes (3–5 MΩ) were filled with the intracellular solution that contained (mM): CsCl 140, HEPES 10, Mg-ATP 4, QX-314 5, pH 7.20; osmolarity, 290–295 mOsm. BAPTA (10 mM) was added in the intracellular solution. The coverslips were continuously superfused with the extracellular solution containing (mM): NaCl 140, KCl 5.4, HEPES 10, MgCl2 1.0, CaCl2 1.3, glucose 20, pH 7.4; osmolarity, 305–315 mOsm.
(Patch clamp records ionic current or voltage across a cell membrane.)

Assay [2] concerns the target T3, α1β2E181Gγ2 GABAAR with γ2 R197E mutation (Rattus norvegicus, UniProt P18508+P62813+P63138, E206G/R235E).
T3 construct: expressed in transfected cells; host or cells: HEK293
In words: Patch clamp, HEK293, mutant GABAAR. The method, then:
as §1, §2, §3

The target in a further assay is T4, α2K155Dβγ GABAAR (Rattus norvegicus, UniProt P23576+P63138, K183D).
T4 construct: expressed in transfected cells; host or cells: HEK293
Briefly: Patch clamp, HEK293, mutant GABAAR. The following applies: HEK293, read-out: Glutamate potentiation of GABA currents, % of control, normalized to respective wild-type receptor. The method, then: (§4) Fig. 4 Property characterization of glutamate binding sites in HEK cells expressing wild-type or mutated αβγ GABAARs. a, b The effects of electrostatic charge and/or size of the pocket-forming residues on glutamate-induced functional modulation.
as §1, §2
as §3, with “305–315 mOsm. […] Dose–response curves were created by fitting data to Hill equation: I = Imax/[1 + (EC50/[A])^n], where I is the current, Imax is the maximum current, [A] is a given concentration of agonist, n is the Hill coefficient. […] All experiments were performed at room temperature.” for “305–315 mOsm.”

For the next assay, the target named is T5, αβ1E182Gγ GABAAR (Rattus norvegicus, UniProt P15431+P62813, E207G).
T5 construct: expressed in transfected cells; host or cells: HEK293
In words: Patch clamp, HEK293, mutant GABAAR. The conditions noted are these: HEK293, read-out: Glutamate potentiation of GABA currents, % of control, normalized to respective wild-type receptor. As to the method:
as §4, §1, §2
as §3, with “305–315 mOsm. […] Dose–response curves were created by fitting data to Hill equation: I = Imax/[1 + (EC50/[A])^n], where I is the current, Imax is the maximum current, [A] is a given concentration of agonist, n is the Hill coefficient. […] All experiments were performed at room temperature.” for “305–315 mOsm.”

T5 sequence (P62813 28-455): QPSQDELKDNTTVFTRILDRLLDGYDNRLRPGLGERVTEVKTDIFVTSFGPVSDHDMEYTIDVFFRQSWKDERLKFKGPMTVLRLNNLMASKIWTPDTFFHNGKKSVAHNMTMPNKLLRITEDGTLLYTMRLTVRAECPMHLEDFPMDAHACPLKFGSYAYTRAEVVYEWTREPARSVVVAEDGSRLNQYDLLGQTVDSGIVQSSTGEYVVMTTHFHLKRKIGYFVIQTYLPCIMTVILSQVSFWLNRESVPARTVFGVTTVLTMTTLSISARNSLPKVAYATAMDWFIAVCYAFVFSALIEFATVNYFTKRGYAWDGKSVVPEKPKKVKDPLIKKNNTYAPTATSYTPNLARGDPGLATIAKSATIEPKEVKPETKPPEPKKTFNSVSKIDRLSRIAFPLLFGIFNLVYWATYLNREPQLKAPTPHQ
T5 sequence (P15431 26-474 E207G): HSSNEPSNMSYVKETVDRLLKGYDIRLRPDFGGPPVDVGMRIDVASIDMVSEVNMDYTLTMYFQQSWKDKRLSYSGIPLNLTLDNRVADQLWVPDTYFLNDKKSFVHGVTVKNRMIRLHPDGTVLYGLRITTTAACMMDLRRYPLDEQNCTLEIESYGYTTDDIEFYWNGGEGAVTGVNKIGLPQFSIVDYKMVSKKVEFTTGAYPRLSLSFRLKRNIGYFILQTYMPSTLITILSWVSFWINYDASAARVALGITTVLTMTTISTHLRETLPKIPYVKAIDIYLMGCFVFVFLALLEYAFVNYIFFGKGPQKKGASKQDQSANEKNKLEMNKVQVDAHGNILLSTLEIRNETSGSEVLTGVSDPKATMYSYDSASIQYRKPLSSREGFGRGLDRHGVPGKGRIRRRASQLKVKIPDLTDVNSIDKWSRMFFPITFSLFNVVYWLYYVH
T5 sequence (P18508 39-466 partner): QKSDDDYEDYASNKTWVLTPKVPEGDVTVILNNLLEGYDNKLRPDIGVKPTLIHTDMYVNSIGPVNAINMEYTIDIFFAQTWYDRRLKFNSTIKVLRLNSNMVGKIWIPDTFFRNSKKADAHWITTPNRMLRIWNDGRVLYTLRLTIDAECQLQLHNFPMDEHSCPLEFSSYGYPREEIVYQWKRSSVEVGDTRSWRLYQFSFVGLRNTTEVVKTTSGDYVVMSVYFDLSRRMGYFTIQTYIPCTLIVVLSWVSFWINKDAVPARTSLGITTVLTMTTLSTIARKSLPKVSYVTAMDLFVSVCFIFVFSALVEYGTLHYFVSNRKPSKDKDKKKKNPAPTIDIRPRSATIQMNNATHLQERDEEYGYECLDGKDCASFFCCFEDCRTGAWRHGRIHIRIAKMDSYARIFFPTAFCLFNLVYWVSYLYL
T3 sequence (P62813 28-455): as the sequence (P62813 28-455) above
T3 sequence (P63138 26-474 E206G): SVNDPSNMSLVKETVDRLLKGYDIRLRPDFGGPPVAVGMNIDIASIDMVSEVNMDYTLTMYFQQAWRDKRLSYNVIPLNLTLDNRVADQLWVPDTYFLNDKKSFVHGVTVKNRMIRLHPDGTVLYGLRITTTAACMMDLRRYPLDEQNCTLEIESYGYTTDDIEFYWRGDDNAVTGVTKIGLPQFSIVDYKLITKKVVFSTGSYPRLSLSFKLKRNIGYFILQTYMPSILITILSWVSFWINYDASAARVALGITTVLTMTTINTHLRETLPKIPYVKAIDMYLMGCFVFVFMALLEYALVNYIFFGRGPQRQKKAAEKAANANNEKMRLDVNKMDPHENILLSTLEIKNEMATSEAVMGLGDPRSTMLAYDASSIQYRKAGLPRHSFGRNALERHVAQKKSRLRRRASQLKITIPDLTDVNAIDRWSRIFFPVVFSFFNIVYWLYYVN
T3 sequence (P18508 39-466 R235E): as the sequence (P18508 39-466 partner) above, with R197E counted along it
T2 sequence (P62813 28-455 K182D): as the sequence (P62813 28-455) above, with K155D counted along it
T2 sequence (P63138 26-474, stated change not applied): as the sequence (P63138 26-474 E206G) above, with G181E counted along it
T2 sequence (P18508 39-466 E206K): as the sequence (P18508 39-466 partner) above, with E168K counted along it
T4 sequence (P23576 29-451 K183D): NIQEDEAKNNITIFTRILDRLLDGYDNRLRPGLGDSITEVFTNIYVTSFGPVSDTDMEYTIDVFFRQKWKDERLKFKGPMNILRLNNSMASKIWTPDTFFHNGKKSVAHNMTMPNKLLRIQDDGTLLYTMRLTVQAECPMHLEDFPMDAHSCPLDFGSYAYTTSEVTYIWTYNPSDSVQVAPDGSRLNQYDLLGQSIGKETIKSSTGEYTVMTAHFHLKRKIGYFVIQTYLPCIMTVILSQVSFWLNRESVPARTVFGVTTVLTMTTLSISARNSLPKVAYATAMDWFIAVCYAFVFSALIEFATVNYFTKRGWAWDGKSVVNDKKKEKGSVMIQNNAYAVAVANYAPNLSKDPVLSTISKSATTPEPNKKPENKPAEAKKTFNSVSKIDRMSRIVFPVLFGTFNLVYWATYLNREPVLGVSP
T4 sequence (P63138 26-474): as the sequence (P63138 26-474 E206G) above, with G181E counted along it
T4 sequence (P18508 39-466 partner): as the sequence (P18508 39-466 partner) above
T1 sequence (P63137 26-512 E206G): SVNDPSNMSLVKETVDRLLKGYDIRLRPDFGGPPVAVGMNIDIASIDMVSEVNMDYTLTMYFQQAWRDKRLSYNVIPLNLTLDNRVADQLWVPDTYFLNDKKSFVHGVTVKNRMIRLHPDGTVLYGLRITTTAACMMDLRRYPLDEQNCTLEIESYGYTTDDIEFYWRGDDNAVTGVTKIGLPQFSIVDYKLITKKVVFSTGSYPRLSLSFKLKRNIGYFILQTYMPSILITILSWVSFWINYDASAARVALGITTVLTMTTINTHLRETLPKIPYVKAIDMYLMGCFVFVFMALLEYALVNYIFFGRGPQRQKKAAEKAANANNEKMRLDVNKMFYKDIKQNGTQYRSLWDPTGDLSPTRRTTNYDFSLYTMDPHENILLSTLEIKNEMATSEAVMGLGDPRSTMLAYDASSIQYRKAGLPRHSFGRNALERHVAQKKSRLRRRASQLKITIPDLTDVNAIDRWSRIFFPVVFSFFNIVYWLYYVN

For `N[C@@H](CCC(=O)O)C(=O)O` [glutamate, Glutamate], in assay [1], the “eIPSCs relative to baseline” value is listed as 114.2 ± 9.9%. In addition, the “restored potentiation, % of wild-type α1β2γ2” value at α1K155Dβ2γ2E168K GABAAR (100 μM glutamate) is given as 71.8 ± 14.7%; at α1K155Dβ2γ2E168K GABAAR (1 mM glutamate), 76.4 ± 10%; in assay [2] (Glu 100 μM), 76.6 ± 10.4%; in assay [2] (Glu 1 mM) it was 84.5 ± 16.9%. Moreover, the activity at 100 µM at α2K155Dβγ GABAAR (Glu 100 μM) was 6.3 ± 6.9%; at αβ1E182Gγ GABAAR (Glu 100 μM), 2.4 ± 2%. Moreover, the results for the activity at 1000 µM at α2K155Dβγ GABAAR (Glu 1 mM) and on αβ1E182Gγ GABAAR (Glu 1 mM) were 5.3 ± 2.1% and 7.6 ± 1%, respectively.

(Values after paper PMC9527238, “Glutamate and GABAA receptor crosstalk mediates homeostatic regulation of neuronal excitation in the mammalian brain” (Signal Transduction and Targeted Therapy, 2022).)
